From US7030134B2, “Pyrazolopyridinyl pyridine and pyrimidine therapeutic compounds” (SmithKline Beecham Corporation, priority 2001, dated 2006)
Counter-ions that a name gives are not always drawn.

tested on: HSV-1; test: HSV-1 replication in infected Vero 76 cells, DNA hybridization capture assay; assay type: cell-based, herpes simplex virus 1; settings: Human alphaherpesvirus 1, Vero 76
Experimental: Vero 76 cells were maintained in MEM with Earle's salts, L-glutamine, 8% FBS (Hyclone, A-1111-L) and 100 units/mL Penicillin-100 μg/mL Streptomycin. For assay conditions, FBS was reduced to 2%. Cells are seeded into 96-well tissue culture plates at a density of 5×10^4 cells/well after being incubated for 45 min at 37° C. in the presence of HSV-1 or HSV-2 (MOI=0.001). Test compounds are added to the wells and the plates are incubated at 37° C. for 40–48 hours. Cell lysates are prepared as follows: media was removed and replaced with 150 μL/well 0.2 N NaOH with 1% Igepal CA 630 or NP-40. Plates were incubated up to 14 days at room temperature in a humidified chamber to prevent evaporation.
For the detection probe, a gel-purified, digoxigenin-labeled, […] PCR fragment of the HSV UL-15 sequence was utilized. PCR conditions included 0.5 μM primers, 180 μM dTTP, 20 μM dUTP-digoxigenin (Boehringer Mannheim 1558706), 200 μM each of dATP, dCTP, and dGTP, 1×PCR Buffer II (Perkin Elmer), 2.5 mM MgCl2, 0.025 units/μL of AmpliTaq Gold polymerase (Perkin Elmer), and 5 ng of gel-purified HSV DNA per 100 μL. Extension conditions were 10 min at 95° C., followed by 30 cycles of 95° C. for 1 min, 55° C. for 30 sec, and 72° C. for 2 min. The amplification was completed with a 10-min incubation at 72° C. Primers were selected to amplify a 728 bp probe spanning a section of the HSV1 UL 15 open reading frame (nucleotides 249–977). Single-stranded transcripts were purified with Promega M13 Wizard kits. The final product was mixed 1:1 with a mixture of 6 M GuSCN, 100 mM EDTA and 200 μg/mL herring sperm DNA and stored at 4° C.
The capture DNA plasmid (HSV UL13 region in pUC) was linearized by cutting with Xba I, denatured for 15 min at 95° C. and diluted immediately into Reacti-Bind DNA Coating Solution (Pierce, 17250, diluted 1:1 with TE buffer, pH 8) at 1 ng/μL 75 μL/well were added to Corning (#3922 or 9690) white 96-well plates and incubated at room temperature for at least 4 hrs before washing twice with 300 μL/well 0.2×SSC/0.05% Tween-20 (SSC/T buffer). The plates were then incubated overnight at room temperature with 150 μL/well 0.2 N NaOH, 1% IGEPAL and 10 μg/mL herring sperm DNA.
Twenty-seven (27) μL of cell lysate was combined with 45 μL of hybridization solution (final concentration:3M GuSCN, 50 mM EDTA, 100 μg/ml salmon sperm DNA, 5× Denhardt's solution, 0.25×APE, and 5 ng of the digoxigenin-labeled detection probe). APE is 1.5 M NH4-acetate, 0.15 M NH4H2 phosphate, and 5 mM EDTA adjusted to pH 6.0. Mineral oil (50 μL) was added to prevent evaporation. The hybridization plates were incubated at 95° C. for 10 minutes to denature the DNA, then incubated at 42° C. overnight. The wells were washed 6× with 300 μL/well SSC/T buffer then incubated with 75 μL/well anti-digoxigenin-HRP-conjugated antibody (Boehringer Mannheim 1207733, 1:5000 in TE) for 30 min at room temperature. The wells were washed 6× with 300 μL/well with PBS/0.05% Tween-20 before 75 μL/well SuperSignal LBA substrate (Pierce) was added. The plates were incubated at room temperature for 30 minutes and chemiluminescence was measured in a Wallac Victor reader.
The following results were obtained for HSV-1.

| SMILES | IC50 |
| --- | --- |
| [H]/N=C(/Nc1cc(Cl)cc2c(-c3ccnc(NC4CCCC4)n3)c(-c3ccc(F)cc3)nn12)NC1CCCC1 [Example 26, N-[5-Chloro-3-[2-(cyclopentylamino)pyrimidin-4-yl]-2-(4-fluorophenyl)pyrazolo[1,5-a]pyridin-7-yl]-N′-cyclopentylguanidine hydrochloride] | 260 nM |

same assay, conditions: Human alphaherpesvirus 1; HSV-1 (MOI=0.001) in Vero 76 cells, 40–48 hours incubation, HSV DNA hybridization chemiluminescence readout; read-out: IC50

| SMILES | IC50 |
| --- | --- |
| Fc1ccc(-c2nn3c(N4CCCCC4)cc(Cl)cc3c2-c2ccnc(NC3CCCC3)n2)cc1 [Example 24, 4-[5-Chloro-2-(4-fluorophenyl)-7-(1-piperidinyl)pyrazolo[1,5-a]pyridin-3-yl]-N-cyclopentyl-2-pyrimidinamine] | 120 nM |
| Fc1ccc(-c2nn3c(N4CCOCC4)cc(Cl)cc3c2-c2ccnc(NC3CCCC3)n2)cc1 [Example 25, 4-[5-Chloro-2-(4-fluorophenyl)-7-(4-morpholinyl)pyrazolo[1,5-a]pyridin-3-yl]-N-cyclopentyl-2-pyrimidinamine] | 190 nM |
| Fc1ccc(-c2nn3c(NC4CC4)cc(Cl)cc3c2-c2ccnc(NC3CC3)n2)cc1 [Example 27, 5-Chloro-N-cyclopropyl-3-[2-(cyclopropylamino)pyrimidin-4-yl]-2-(4-fluorophenyl)pyrazolo[1,5-a]pyridin-7-amine] | 1600 nM |
| Clc1cccc(-c2nn3c(Cl)cc(Cl)cc3c2-c2ccnc(NC3CCCC3)n2)c1 [Example 28, N-cyclopentyl-4-[5,7-dichloro-2-(3-chlorophenyl)pyrazolo[1,5-a]pyridin-3-yl]-2-pyrimidinamine] | 3500 nM |
| Clc1cccc(-c2nn3c(NC4CCCC4)cc(Cl)cc3c2-c2ccnc(NC3CCCC3)n2)c1 [Example 29, N-{4-[5-chloro-2-(3-chlorophenyl)-7-(cyclopentylamino)pyrazolo[1,5-a]pyridin-3-yl]-2-pyrimidinyl}-N-cyclopentylamine] | 350 nM |
| COc1ccc(-c2nn3c(NC4CC4)cc(Cl)cc3c2-c2ccnc(NC3CCCC3)n2)cc1 [Example 30, N-{4-[5-Chloro-7-(cyclopropylamino)-2-(4-methoxyphenyl)pyrazolo[1,5-a]pyridin-3-yl]-2-pyrimidinyl}-N-cyclopentylamine] | 330 nM |
| Oc1ccc(-c2nn3c(NC4CC4)cc(Cl)cc3c2-c2ccnc(NC3CCCC3)n2)cc1 [Example 31, 4-[5-Chloro-3-[2-(cyclopentylamino)-4-pyrimidinyl]-7-(cyclopropylamino)pyrazolo[1,5-a]pyridin-2-yl]phenol] | 1500 nM |
| Clc1cc(NC2CC2)n2nc(-c3ccc(OCC4CC4)cc3)c(-c3ccnc(NC4CCCC4)n3)c2c1 [Example 32, 5-Chloro-3-[2-(cyclopentylamino)-4-pyrimidinyl]-N-cyclopropyl-2-[4-(cyclopropylmethoxy)phenyl]pyrazolo[1,5-a]pyridin-7-amine] | 800 nM |
| Oc1ccc(-c2nn3c(NC4CCCC4)cc(Cl)cc3c2-c2ccnc(NC3CCCC3)n2)cc1 [Example 33, 4-[5-Chloro-3-[2-(cyclopentylamino)-4-pyrimidinyl]-7-(cyclopentylamino)pyrazolo[1,5-a]pyridin-2-yl]phenol] | 800 nM |
| Clc1cc(NC2CCCC2)n2nc(-c3ccc(OCC4CC4)cc3)c(-c3ccnc(NC4CCCC4)n3)c2c1 [Example 34, 5-Chloro-3-[2-(cyclopentylamino)-4-pyrimidinyl]-N-cyclopentyl-2-[4-(cyclopropylmethoxy)phenyl]pyrazolo[1,5-a]pyridin-7-amine] | 120 nM |
| COc1ccc(-c2nn3c(Cl)cc(Cl)cc3c2-c2ccnc(SC)n2)cc1 [Example 35, 5,7-dichloro-2-(4-methoxyphenyl)-3-[2-(methylthio)pyrimidin-4-yl]pyrazolo[1,5-a]pyridine] | > 40000 nM |
| COc1ccc(-c2nn3c(NC4CCCC4)cc(Cl)cc3c2-c2ccnc(SC)n2)cc1 [Example 36, N-{5-Chloro-2-(4-methoxyphenyl)-3-[2-(methylsulfanyl)-4-pyrimidinyl]pyrazolo[1,5-a]pyridin-7-yl}-N-cyclopentylamine] | 22000 nM |
| COc1ccc(-c2nn3c(NC4CCCC4)cc(Cl)cc3c2-c2ccnc([S+](C)[O-])n2)cc1 (stereo not drawn) [Example 37, N-{5-Chloro-2-(4-methoxyphenyl)-3-[2-(methylsulfinyl)-4-pyrimidinyl]pyrazolo[1,5-a]pyridin-7-yl}-N-cyclopentylamine] | 6000 nM |
| COc1ccc(-c2nn3c(NC4CCCC4)cc(Cl)cc3c2-c2ccnc(NC3CC3)n2)cc1 [Example 38, N-{4-[5-Chloro-7-(cyclopentylamino)-2-(4-methoxyphenyl)pyrazolo[1,5-a]pyridin-3-yl]-2-pyrimidinyl}-N-cyclopropylamine] | 340 nM |
| Oc1ccc(-c2nn3c(NC4CCCC4)cc(Cl)cc3c2-c2ccnc(NC3CC3)n2)cc1 [Example 39, 4-{5-Chloro-7-(cyclopentylamino)-3-[2-(cyclopropylamino)-4-pyrimidinyl]pyrazolo[1,5-a]pyridin-2-yl}phenol] | 2000 nM |
| Clc1cc(NC2CCCC2)n2nc(-c3ccc(OCC4CC4)cc3)c(-c3ccnc(NC4CC4)n3)c2c1 [Example 40, N-(4-{5-Chloro-7-(cyclopentylamino)-2-[4-(cyclopropyl-methoxy)phenyl]pyrazolo[1,5-a]pyridin-3-yl}-2-pyrimidinyl)-N-cyclopropylamine] | 1300 nM |
| Fc1ccc(-c2nn3c(Cl)cc(NC4CCCC4)cc3c2-c2ccnc(NC3CCCC3)n2)cc1 [Example 41, 7-Chloro-N-cyclopentyl-3-[2-(cyclopentylamino)pyrimidin-4-yl]-2-(4-fluorophenyl)pyrazolo[1,5-a]pyridin-5-amine] | 1300 nM |
| Fc1ccc(-c2nn3c(NC4CCCC4)c(Br)cc(Br)c3c2-c2ccnc(NC3CCCC3)n2)cc1 [Example 42, 4,6-Dibromo-N-cyclopentyl-3-[2-(cyclopentylamino)pyrimidin-4-yl]-2-(4-fluorophenyl)pyrazolo[1,5-a]pyridin-7-amine] | 20000 nM |
| Fc1ccc(-c2nn3c(NC4CCCC4)c(Br)cc(Br)c3c2-c2nc(NC3CCCC3)ncc2Br)cc1 [Example 43, 4,6-Dibromo-3-[5-bromo-2-(cyclopentylamino)pyrimidin-4-yl]-N-cyclopentyl-2-(4-fluorophenyl)pyrazolo[1,5-a]pyridin-7-amine] | > 40000 nM |
| Fc1ccc(-c2nn3c(NC4CCCC4)c(Cl)ccc3c2-c2ccnc(NC3CCCC3)n2)cc1 [Example 44, 6-Chloro-N-cyclopentyl-3-[2-(cyclopentylamino)pyrimidin-4-yl]-2-(4-fluorophenyl)pyrazolo[1,5-a]pyridin-7-amine] | 900 nM |
| COc1cc(NC2CCCC2)n2nc(-c3ccc(F)cc3)c(-c3ccnc(NC4CCCC4)n3)c2c1 [Example 45, N-Cyclopentyl-3-[2-(cyclopentylamino)-4-pyrimidinyl]-2-(4-fluorophenyl)-5-methoxypyrazolo[1,5-a]pyridin-7-amine] | 150 nM |
| COCCOc1cc(NC2CCCC2)n2nc(-c3ccc(F)cc3)c(-c3ccnc(NC4CCCC4)n3)c2c1 [Example 46, N-Cyclopentyl-3-[2-(cyclopentylamino)-4-pyrimidinyl]-2-(4-fluorophenyl)-5-(2-methoxyethoxy)pyrazolo[1,5-a]pyridin-7-amine] | 130 nM |

tested on: not given; test: not given; settings: not given

| SMILES | melting point |
| --- | --- |
| COc1cc(NC2CCCC2)n2nc(-c3ccc(F)cc3)c(-c3ccnc(NC4CCCC4)n3)c2c1 [Example 45, N-Cyclopentyl-3-[2-(cyclopentylamino)-4-pyrimidinyl]-2-(4-fluorophenyl)-5-methoxypyrazolo[1,5-a]pyridin-7-amine] | 167 to 169 °C |
